# Test system: 947758-054-R-J2-PDC spheroid growth, percent test/control
# Assay: Anticancer human tumor 947758-054-R-J2-PDC patient-derived colon adenocarcinoma cell line growth inhibition [CLK]
# Details: spheroids with HUVEC and MSC; for IC50: curve of first compound; for viability, T/C: stronger effect = lower value
# Outline: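 Multi-cell-type spheroids combined patient-derived tumor cells with HUVEC endothelial cells and human mesenchymal stem cells. Paired agents were dosed in half-log steps down from about clinical Cmax, or from 10 microM where Cmax was unknown.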
# [1] = second compound 0.0316 µM, first compound 0.0316 µM
# [2] = second compound 0.0316 µM, first compound 0.1 µM
# [3] = second compound 0.0316 µM, first compound 0.316 µM
# [4] = second compound 0.0316 µM, first compound 1 µM
# [5] = second compound 0.0316 µM, first compound 3.16 µM
# [6] = second compound 0.0316 µM, first compound 10 µM
# [7] = second compound 0.1 µM, first compound 0.0316 µM
# [8] = second compound 0.1 µM, first compound 0.1 µM
# [9] = second compound 0.1 µM, first compound 0.316 µM
# [10] = second compound 0.1 µM, first compound 1 µM
# [11] = second compound 0.1 µM, first compound 3.16 µM
# [12] = second compound 0.1 µM, first compound 10 µM
# [13] = second compound 0.316 µM, first compound 0.0316 µM
# [14] = second compound 0.316 µM, first compound 0.1 µM
# [15] = second compound 0.316 µM, first compound 0.316 µM
# [16] = second compound 0.316 µM, first compound 1 µM
# [17] = second compound 0.316 µM, first compound 3.16 µM
# [18] = second compound 0.316 µM, first compound 10 µM
# [19] = second compound 1 µM, first compound 0.0316 µM
# [20] = second compound 1 µM, first compound 0.1 µM
# [21] = second compound 1 µM, first compound 0.316 µM
# [22] = second compound 1 µM, first compound 1 µM
# [23] = second compound 1 µM, first compound 3.16 µM
# [24] = second compound 1 µM, first compound 10 µM
# [25] = second compound 3.16 µM, first compound 0.0316 µM
# [26] = second compound 3.16 µM, first compound 0.1 µM
# [27] = second compound 3.16 µM, first compound 0.316 µM
# [28] = second compound 3.16 µM, first compound 1 µM
# [29] = second compound 3.16 µM, first compound 3.16 µM
# [30] = second compound 3.16 µM, first compound 10 µM
# [31] = second compound 10 µM, first compound 0.0316 µM
# [32] = second compound 10 µM, first compound 0.1 µM
# [33] = second compound 10 µM, first compound 0.316 µM
# [34] = second compound 10 µM, first compound 1 µM
# [35] = second compound 10 µM, first compound 3.16 µM
# [36] = second compound 10 µM, first compound 10 µM
# 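Also: spheroids exposed to compounds for one week before readout.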
# 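For viability, T/C in this document: 100% = DMSO vehicle control wells.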
compound,measurement,setting,value
CC1COCCN1c1cc(C2(S(C)(=N)=O)CC2)nc(-c2ccnc3[nH]ccc23)n1 (stereo unspecified) + CN1CCN(c2cc(C(=O)Nc3cc4cc(-c5cnn(C)c5)ccc4cn3)ccn2)CC1,IC50,second compound 0.0316 µM,8.19 µM
same,IC50,second compound 0.1 µM,4.29 µM
same,IC50,second compound 0.316 µM,< 0.0316 µM
same,IC50,second compound 1 µM,< 0.0316 µM
same,IC50,second compound 3.16 µM,< 0.0316 µM
same,IC50,second compound 10 µM,< 0.0316 µM
same,"viability, T/C",[1],129%
same,"viability, T/C",[2],130%
same,"viability, T/C",[3],147%
same,"viability, T/C",[4],208%
same,"viability, T/C",[5],174%
same,"viability, T/C",[6],27.1%
same,"viability, T/C",[7],156%
same,"viability, T/C",[8],161%
same,"viability, T/C",[9],134%
same,"viability, T/C",[10],111%
same,"viability, T/C",[11],59.6%
same,"viability, T/C",[12],20.6%
same,"viability, T/C",[13],4.56%
same,"viability, T/C",[14],7.68%
same,"viability, T/C",[15],5.32%
same,"viability, T/C",[16],4.07%
same,"viability, T/C",[17],7.49%
same,"viability, T/C",[18],2.19%
same,"viability, T/C",[19],0.17%
same,"viability, T/C",[20],0.18%
same,"viability, T/C",[21],0.17%
same,"viability, T/C",[22],2.01%
same,"viability, T/C",[23],2.61%
same,"viability, T/C",[24],0.13%
same,"viability, T/C",[25],0.74%
same,"viability, T/C",[26],0.2%
same,"viability, T/C",[27],0.39%
same,"viability, T/C",[28],1.46%
same,"viability, T/C",[29],1.04%
same,"viability, T/C",[30],0.96%
same,"viability, T/C",[31],1.2%
same,"viability, T/C",[32],0.28%
same,"viability, T/C",[33],1.41%
same,"viability, T/C",[34],1.13%
same,"viability, T/C",[35],1.09%
same,"viability, T/C",[36],0.51%
CC(C)CC(NC(=O)C(Cc1ccccc1)NC(=O)c1cnccn1)B(O)O (stereo unspecified) + CNC(=O)c1ccc(Nc2nc(OC3CCCC3)c3c(-c4ccc5nc(C)oc5c4)c[nH]c3n2)c(OC)c1,IC50,second compound 0.0316 µM,0.00185 µM
same,IC50,second compound 0.1 µM,0.00166 µM
same,IC50,second compound 0.316 µM,0.00172 µM
same,IC50,second compound 1 µM,0.00142 µM
same,IC50,second compound 3.16 µM,< 0.000949 µM
same,IC50,second compound 10 µM,< 0.000949 µM
same,"viability, T/C","second compound 0.0316 µM, first compound 0.000949 µM",117%
same,"viability, T/C","second compound 0.0316 µM, first compound 0.003 µM",1.15%
same,"viability, T/C","second compound 0.0316 µM, first compound 0.00949 µM",0.26%
same,"viability, T/C","second compound 0.0316 µM, first compound 0.03 µM",0.29%
same,"viability, T/C","second compound 0.0316 µM, first compound 0.0949 µM",0.3%
same,"viability, T/C","second compound 0.0316 µM, first compound 0.3 µM",0.28%
same,"viability, T/C","second compound 0.1 µM, first compound 0.000949 µM",89%
same,"viability, T/C","second compound 0.1 µM, first compound 0.003 µM",8.66%
same,"viability, T/C","second compound 0.1 µM, first compound 0.00949 µM",0.26%
same,"viability, T/C","second compound 0.1 µM, first compound 0.03 µM",0.27%
same,"viability, T/C","second compound 0.1 µM, first compound 0.0949 µM",0.25%
same,"viability, T/C","second compound 0.1 µM, first compound 0.3 µM",1.66%
same,"viability, T/C","second compound 0.316 µM, first compound 0.000949 µM",102%
same,"viability, T/C","second compound 0.316 µM, first compound 0.003 µM",1.44%
same,"viability, T/C","second compound 0.316 µM, first compound 0.00949 µM",0.22%
same,"viability, T/C","second compound 0.316 µM, first compound 0.03 µM",0.22%
same,"viability, T/C","second compound 0.316 µM, first compound 0.0949 µM",0.25%
same,"viability, T/C","second compound 0.316 µM, first compound 0.3 µM",0.23%
same,"viability, T/C","second compound 1 µM, first compound 0.000949 µM",75.7%
same,"viability, T/C","second compound 1 µM, first compound 0.003 µM",2.99%
same,"viability, T/C","second compound 1 µM, first compound 0.00949 µM",0.32%
same,"viability, T/C","second compound 1 µM, first compound 0.03 µM",0.21%
same,"viability, T/C","second compound 1 µM, first compound 0.0949 µM",0.26%
same,"viability, T/C","second compound 1 µM, first compound 0.3 µM",0.46%
same,"viability, T/C","second compound 3.16 µM, first compound 0.000949 µM",45.1%
same,"viability, T/C","second compound 3.16 µM, first compound 0.003 µM",0.43%
same,"viability, T/C","second compound 3.16 µM, first compound 0.00949 µM",0.21%
same,"viability, T/C","second compound 3.16 µM, first compound 0.03 µM",0.19%
same,"viability, T/C","second compound 3.16 µM, first compound 0.0949 µM",0.21%
same,"viability, T/C","second compound 3.16 µM, first compound 0.3 µM",0.24%
same,"viability, T/C","second compound 10 µM, first compound 0.000949 µM",38.8%
same,"viability, T/C","second compound 10 µM, first compound 0.003 µM",0.32%
same,"viability, T/C","second compound 10 µM, first compound 0.00949 µM",0.21%
same,"viability, T/C","second compound 10 µM, first compound 0.03 µM",0.2%
same,"viability, T/C","second compound 10 µM, first compound 0.0949 µM",0.23%
same,"viability, T/C","second compound 10 µM, first compound 0.3 µM",0.35%
CC(=O)O[C@H]1C(=O)[C@@]2(C)[C@H]([C@H](OC(=O)c3ccccc3)[C@]3(O)C[C@H](OC(=O)[C@H](O)[C@@H](NC(=O)c4ccccc4)c4ccccc4)C(C)=C1C3(C)C)[C@]1(OC(C)=O)CO[C@@H]1C[C@@H]2O + CNC(=O)c1ccc(Nc2nc(OC3CCCC3)c3c(-c4ccc5nc(C)oc5c4)c[nH]c3n2)c(OC)c1,IC50,second compound 0.0316 µM,< 0.0316 µM
same,IC50,second compound 0.1 µM,> 10 µM
same,IC50,second compound 0.316 µM,< 0.0316 µM
same,IC50,second compound 1 µM,> 10 µM
same,IC50,second compound 3.16 µM,< 0.0316 µM
same,IC50,second compound 10 µM,< 0.0316 µM
same,"viability, T/C",[1],27.7%
same,"viability, T/C",[2],34.4%
same,"viability, T/C",[3],31.7%
same,"viability, T/C",[4],35.2%
same,"viability, T/C",[5],40.6%
same,"viability, T/C",[6],47.7%
same,"viability, T/C",[7],61.2%
same,"viability, T/C",[8],59%
same,"viability, T/C",[9],65%
same,"viability, T/C",[10],79.8%
same,"viability, T/C",[11],79.1%
same,"viability, T/C",[12],90.5%
same,"viability, T/C",[13],47.7%
same,"viability, T/C",[14],65.1%
same,"viability, T/C",[15],74.4%
same,"viability, T/C",[16],85.6%
same,"viability, T/C",[17],88.3%
same,"viability, T/C",[18],87.4%
same,"viability, T/C",[19],41.1%
same,"viability, T/C",[20],83.5%
same,"viability, T/C",[21],59.1%
same,"viability, T/C",[22],61.9%
same,"viability, T/C",[23],82.8%
same,"viability, T/C",[24],57.6%
same,"viability, T/C",[25],36.9%
same,"viability, T/C",[26],43.8%
same,"viability, T/C",[27],70.2%
same,"viability, T/C",[28],70.8%
same,"viability, T/C",[29],67.9%
same,"viability, T/C",[30],56.8%
same,"viability, T/C",[31],35.2%
same,"viability, T/C",[32],42.1%
same,"viability, T/C",[33],56.7%
same,"viability, T/C",[34],53.9%
same,"viability, T/C",[35],56.8%
same,"viability, T/C",[36],61.3%
